# Laboratory results: ChEMBL document CHEMBL4118133, “Inhibitory effects of methyl-3,5-di-O-caffeoyl-epi-quinate on RANKL-induced osteoclast differentiation” (Bioorg Med Chem Lett, 2018)
# Activity calls are given as the source filed them. The calls are words filed in the database; no cut-off is given here.
# Experiments:
# Osteoclast = assay: Effect on bone-resorbing function of osteoclast derived from M-CSF/RANKL-induced ICR mouse BMDM assessed as change in size of resorption pit area at 5 uM after 2 days by hematoxylin staining-based assay; assay type: functional, cell-based
# BMDM [1] = assay: Inhibition of RANKL-induced ERK phosphorylation in ICR mouse BMDM at 5 uM preincubated for 1 hr followed by RANKL stimulation measured after 5 to 30 mins by Western blot method; assay type: cell-based
# BMDM [2] = assay: Inhibition of M-CSF/RANKL-induced osteoclast differentiation in ICR mouse BMDM assessed as downregulation of Nfatc1 mRNA expression at 5 uM by qRT-PCR method; assay type: functional, cell-based
# BMDM [3] = assay: Inhibition of M-CSF/RANKL-induced osteoclast differentiation in ICR mouse BMDM assessed as downregulation of Acp5 mRNA expression at 5 uM by qRT-PCR method; assay type: functional, cell-based
# BMDM [4] = assay: Inhibition of M-CSF/RANKL-induced osteoclast differentiation in ICR mouse BMDM assessed as decrease in number of cells with nuclear Nfatc1 at 5 uM by rhodamine-conjugated phalloidin/DAPI staining-based immunofluorescence method; assay type: functional, cell-based
# BMDM [5] = assay: Inhibition of RANKL-mediated decrease in Bcl6 mRNA expression in ICR mouse BMDM at 5 uM by qRT-PCR method; assay type: functional, cell-based
# [6] = molecular target: RAC-alpha serine/threonine-protein kinase (Mus musculus) (UniProt P31750); assay: Inhibition of RANKL-induced AKT phosphorylation in ICR mouse BMDM at 5 uM preincubated for 1 hr followed by RANKL stimulation measured after 30 mins by Western blot method; assay type: cell-based
# BMDM [7] = assay: Inhibition of RANKL-mediated decrease in Irf8 mRNA expression in ICR mouse BMDM at 5 uM by qRT-PCR method; assay type: functional, cell-based
# BMDM [8] = assay: Inhibition of M-CSF/RANKL-induced osteoclast differentiation in ICR mouse BMDM assessed as downregulation of Dcstamp mRNA expression at 5 uM by qRT-PCR method; assay type: functional, cell-based
# BMDM [9] = assay: Growth inhibition of ICR mouse BMDM up to 10 uM after 3 days by MTT assay; assay type: cell-based; settings: 72 h
# BMDM [10] = assay: Inhibition of M-CSF/RANKL-induced osteoclast differentiation in ICR mouse BMDM at 5 to 10 uM after 4 days by TRAP staining method; assay type: functional, cell-based
# BMDM [11] = assay: Inhibition of M-CSF/RANKL-induced osteoclast differentiation in ICR mouse BMDM assessed as downregulation of Nfatc1 expression at 5 uM after 3 days by Western blot method; assay type: functional, cell-based
# BMDM [12] = assay: Inhibition of M-CSF/RANKL-induced osteoclast differentiation in ICR mouse BMDM at 1 uM after 4 days by TRAP staining method relative to control; assay type: functional; settings: 96 h
# BMDM [13] = assay: Inhibition of M-CSF/RANKL-induced osteoclast differentiation in ICR mouse BMDM assessed as downregulation of Ctsk mRNA expression at 5 uM by qRT-PCR method; assay type: functional, cell-based
# [14] = molecular target: MAP kinase p38 (Mus musculus) (UniProt P47811+O08911+Q9WUI1+Q9Z1B7); assay: Inhibition of RANKL-induced p38 phosphorylation in ICR mouse BMDM at 5 uM preincubated for 1 hr followed by RANKL stimulation measured after 5 to 30 mins by Western blot method; assay type: cell-based
# BMDM [15] = assay: Inhibition of RANKL-mediated decrease in Mafb mRNA expression in ICR mouse BMDM at 5 uM by qRT-PCR method; assay type: functional, cell-based
# RAC-alpha serine/threonine-protein kinase (Mus musculus), sequence (P31750 whole entry): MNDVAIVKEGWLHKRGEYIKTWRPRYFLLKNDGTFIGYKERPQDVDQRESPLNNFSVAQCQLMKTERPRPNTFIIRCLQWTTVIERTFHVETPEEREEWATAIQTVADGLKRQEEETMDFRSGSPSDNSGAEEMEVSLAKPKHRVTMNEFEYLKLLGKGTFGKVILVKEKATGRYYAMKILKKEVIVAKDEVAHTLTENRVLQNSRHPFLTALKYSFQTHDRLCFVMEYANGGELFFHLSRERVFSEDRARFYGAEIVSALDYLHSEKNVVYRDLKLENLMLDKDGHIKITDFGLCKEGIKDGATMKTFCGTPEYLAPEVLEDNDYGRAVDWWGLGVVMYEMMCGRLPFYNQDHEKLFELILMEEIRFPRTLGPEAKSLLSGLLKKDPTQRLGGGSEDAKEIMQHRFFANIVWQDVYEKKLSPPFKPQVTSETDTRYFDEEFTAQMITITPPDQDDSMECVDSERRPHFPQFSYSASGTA
compound,measurement,setting,value
COC(=O)[C@]1(O)C[C@@H](OC(=O)/C=C/c2ccc(O)c(O)c2)[C@H](O)[C@H](OC(=O)/C=C/c2ccc(O)c(O)c2)C1,Activity,Osteoclast,inactive
same,inhibition,BMDM [1],Active
same,inhibition,BMDM [2],Active
same,inhibition,BMDM [3],Active
same,inhibition,BMDM [4],Active
same,inhibition,BMDM [5],Active
same,inhibition,[6],Active
same,inhibition,BMDM [7],Active
same,inhibition,BMDM [8],Active
same,growth inhibition (GI),BMDM [9],Non-Toxic
same,inhibition,BMDM [10],Active
same,inhibition,BMDM [11],Active
same,inhibition at 1 µM,BMDM [12],78%
same,inhibition,BMDM [13],Active
same,inhibition,[14],Active
same,inhibition,BMDM [15],Active
